Data from PubChem BioAssay AID2060622 (Molecular Pharmacology Branch, DTP, NCI, 2025).
“And” between values parts separate entries of the source, which are not always exact repeats. Identical values can stand only once.

System: 242566-281-R-J2-PDC complex spheroid viability
Assay: Anticancer human tumor 242566-281-R-J2-PDC patient-derived pancreatic carcinoma cell line growth inhibition [CLK]
Conditions: for viability, T/C: stronger effect = lower value
Summary of the method: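 Multi-cell-type spheroids combined patient-derived tumor cells with HUVEC endothelial cells and human mesenchymal stem cells. Paired agents were dosed in half-log steps down from about clinical Cmax, or from 10 microM where Cmax was unknown.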
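Further: spheroids exposed to compounds for 7 days before readout.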
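Wherever viability, T/C is given: 100% = DMSO vehicle control wells.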

`Cn1ncnc1[C@H]1c2n[nH]c(=O)c3cc(F)cc(c23)N[C@@H]1c1ccc(F)cc1` was tested, and the viability, T/C (compound 0.000316 µM) was 106% and 93.2%, the viability, T/C (compound 0.001 µM) was 93.8% and 102% and the viability, T/C (compound 0.00316 µM) was 111% and 107%. The viability, T/C (compound 0.01 µM) was 107% and 91%, the viability, T/C (compound 0.0316 µM) was 96.3% and 95.3% and the viability, T/C (compound 0.1 µM) was 87.1% and 99.8%. For the same compound, the IC50 (curve of compound) was > 100 nM.
`C=CC(=O)Nc1cc(Nc2nccc(-c3cn(C)c4ccccc34)n2)c(OC)cc1N(C)CCN(C)C` + CNC(=O)c1ccc(Nc2nc(OC3CCCC3)c3c(-c4ccc5nc(C)oc5c4)c[nH]c3n2)c(OC)c1 was tested, and the IC50 (curve of first compound, second compound 0.0316 µM) was > 300 nM, the IC50 (curve of first compound, second compound 0.1 µM) was > 300 nM and the IC50 (curve of first compound, second compound 0.316 µM) was > 300 nM. For the same compound, the IC50 (curve of first compound, second compound 1 µM) was > 300 nM, the IC50 (curve of first compound, second compound 3.16 µM) was 2.72 nM and the IC50 (curve of first compound, second compound 10 µM) was 3.17 nM. It also gave a viability, T/C (second compound 0.0316 µM, first compound 0.000949 µM) of 83.7%, a viability, T/C (second compound 0.0316 µM, first compound 0.003 µM) of 97% and a viability, T/C (second compound 0.0316 µM, first compound 0.00949 µM) of 101%. It also gave a viability, T/C (second compound 0.0316 µM, first compound 0.03 µM) of 108%, a viability, T/C (second compound 0.0316 µM, first compound 0.0949 µM) of 110% and a viability, T/C (second compound 0.0316 µM, first compound 0.3 µM) of 92.8%. For the same compound, the viability, T/C (second compound 0.1 µM, first compound 0.000949 µM) was 96.1%, the viability, T/C (second compound 0.1 µM, first compound 0.003 µM) was 81.7% and the viability, T/C (second compound 0.1 µM, first compound 0.00949 µM) was 80.1%. The viability, T/C (second compound 0.1 µM, first compound 0.03 µM) was 99.5%, the viability, T/C (second compound 0.1 µM, first compound 0.0949 µM) was 95.5% and the viability, T/C (second compound 0.1 µM, first compound 0.3 µM) was 81.4%. It also gave a viability, T/C (second compound 0.316 µM, first compound 0.000949 µM) of 89.4%, a viability, T/C (second compound 0.316 µM, first compound 0.003 µM) of 76% and a viability, T/C (second compound 0.316 µM, first compound 0.00949 µM) of 72.2%. It also gave a viability, T/C (second compound 0.316 µM, first compound 0.03 µM) of 77.6%, a viability, T/C (second compound 0.316 µM, first compound 0.0949 µM) of 81.4% and a viability, T/C (second compound 0.316 µM, first compound 0.3 µM) of 80.2%. The viability, T/C (second compound 1 µM, first compound 0.000949 µM) was 69.7%, the viability, T/C (second compound 1 µM, first compound 0.003 µM) was 59% and the viability, T/C (second compound 1 µM, first compound 0.00949 µM) was 58.9%. It also gave a viability, T/C (second compound 1 µM, first compound 0.03 µM) of 61.8%, a viability, T/C (second compound 1 µM, first compound 0.0949 µM) of 63.7% and a viability, T/C (second compound 1 µM, first compound 0.3 µM) of 57.5%. For the same compound, the viability, T/C (second compound 3.16 µM, first compound 0.000949 µM) was 55.9%, the viability, T/C (second compound 3.16 µM, first compound 0.003 µM) was 50% and the viability, T/C (second compound 3.16 µM, first compound 0.00949 µM) was 45.7%. For the same compound, the viability, T/C (second compound 3.16 µM, first compound 0.03 µM) was 51.9%, the viability, T/C (second compound 3.16 µM, first compound 0.0949 µM) was 46.4% and the viability, T/C (second compound 3.16 µM, first compound 0.3 µM) was 48.8%. The viability, T/C (second compound 10 µM, first compound 0.000949 µM) was 49.1%, the viability, T/C (second compound 10 µM, first compound 0.003 µM) was 51.2% and the viability, T/C (second compound 10 µM, first compound 0.00949 µM) was 51.1%. The viability, T/C (second compound 10 µM, first compound 0.03 µM) was 47.7%, the viability, T/C (second compound 10 µM, first compound 0.0949 µM) was 43.1% and the viability, T/C (second compound 10 µM, first compound 0.3 µM) was 44.9%.
